Laboratory results reported in patent US20070027165A1, “Fungicidal mixtures for controlling rice pathogens” (BASF Aktiengesellschaft, priority 2003, published 2007).

Test system: Cochliobolus miyabeanus
Test: activity against brown spot of rice caused by Cochliobolus miyabeanus, protective application
Assay type: in vivo
Settings: individual active compound, rice seedlings, assessed 6 days after inoculation
Procedure: The active compounds, separately or jointly, were prepared as a stock solution with 0.25% by weight of active compound in acetone or DMSO. 1% by weight of the emulsifier Uniperol® EL (wetting agent having emulsifying and dispersing action based on ethoxylated alkylphenols) was added to this solution, and the solution was diluted with water to the desired concentration.
Use example—activity against brown spot of rice caused by Cochliobolus miyabeanus, protective application
Leaves of potted rice seedlings of the cultivar “Tai-Nong 67” were sprayed to runoff point with an aqueous suspension of the concentration of active compound stated below. The next day, the plants were inoculated with an aqueous spore suspension of Cochliobolus miyabeanus. The test plants were then placed in climatized chambers at 22-24° C. and 95-99 % relative atmospheric humidity for six days. The extent of the development of the infection on the leaves was then determined visually.
Evaluation was carried out by determining the percentage of infected plants. These percentages were converted into efficacies.
The efficacy (E) is calculated as follows using Abbot's formula: E=(1−α/β)·100 α corresponds to the fungicidal infection of the treated plants in % and β corresponds to the fungicidal infection of the untreated (control) plants in %
An efficacy of 0 means that the infection level of the treated plants corresponds to that of the untreated control plants; an efficacy of 100 means that the treated plants are not infected.
The expected efficacies of mixtures of active compounds are determined using Colby's formula (R. S. Colby, Weeds, 15, 20-22, 1967) and compared with the observed efficacies.
Colby's formula: E=x+y−x·y/100 • E expected efficacy, expressed in % of the untreated control, when using the mixture of the active compounds A and B at the concentrations a and b • x efficacy, expressed in % of the untreated control, when using the active compound A at the concentration a • y efficacy, expressed in % of the untreated control, when using the active compound B at the concentration b

| SMILES | Efficacy in % of the untreated control (1 ppm in the spray liquor) | Efficacy in % of the untreated control (4 ppm in the spray liquor) |
| --- | --- | --- |
| N#Cc1c[nH]cc1-c1cccc(Cl)c1Cl [II (fenpiclonil), 4-(2,3-dichlorophenyl)-1 H-pyrrole-3-carbonitrile] | 0% | 0% |
| CC1CCN(c2c(-c3c(F)cccc3Cl)c(Cl)nc3ncnn23)CC1 [comparative compound A] | 20% | – |
| CC1CCN(c2c(-c3c(F)cc(F)cc3F)c(Cl)nc3ncnn23)CC1 [I, 5-chloro-7-(4-methylpiperidin-1-yl)-6-(2,4,6-trifluorophenyl)-[1,2,4]triazolo[1,5-a]pyrimidine] | 8% | – |
| C[C@H](Nc1c(-c2c(F)cc(F)cc2F)c(Cl)nc2ncnn12)C(F)(F)F [comparative compound B] | 20% | – |
